Experimental data published in patent publication US20050032160A1, “Cell-based therapies for diabetes mellitus and other glucose intolerant states” (priority 2003, published 2005).
“Also recorded” adds a separate entry of the source.

How the values were obtained:
[1] = test system: glycerol kinase overexpressing 832/13 cells; assay: Pyruvate cycling (13C studies) in glycerol kinase overexpressing 832/13 cells; assay type: cell-based, rat; conditions: glycerol versus glucose
Excerpt: (§1) FIG. 9 depicts the effect of glycerol kinase overexpression in 832/13 cells on insulin excretion, lactate output and pyruvate cycling.
(§2) In contrast, pyruvate cycling and lactate output are higher in response to glycerol than to glucose.

[2] = test system: glycerol kinase overexpressing 832/13 cells; assay: Insulin secretion in glycerol kinase overexpressing 832/13 cells; assay type: cell-based, rat; conditions: glucose versus glycerol
Excerpt: as §1, §2

[3] = test system: glycerol kinase overexpressing 832/13 cells; assay: Lactate output in glycerol kinase overexpressing 832/13 cells; assay type: cell-based, rat; conditions: glycerol versus glucose
Excerpt: as §1, §2

832/13 cells = assay: Insulin secretion assay (radioimmunoassay) in 832/13 cells; assay type: cell-based, rat; conditions: relative to glucose or pyruvate
Description: The cell line 832/13 was created from INS-1 insulinoma β-cells as described earlier (Hohmeier et al. (2000) Diabetes 49:424-430). Cells were cultured in RPMI-1640 medium containing 11 mM glucose supplemented with 10% fetal bovine serum, 10 mM HEPES, 2 mM glutamine, 1 mM sodium pyruvate and […] β-mercaptoethanol. Media was routinely changed every second day. 832/13 cells were split to a cell density of 20-30% confluence in 12 well plates. At a cell density of 90%, cells were exposed to virus by adding crude extract directly to the growth media. After 16 hours of transduction, virus containing media was removed and the cells were cultured in fresh media in additional 24 hours before secretion assays. Insulin secretion was assayed in HEPES buffered saline solution (HBSS) (114 mM NaCl, 4.7 mM KCl,1.2 mM KH2PO4, 1.16 mM MgSO4, 20 mM HEPES, 2.5 mM CaCl2, 25.5 mM NaHCO3, pH 7.2 containing 0.2% bovine serum albumin (essentially fatty acid free). Cells were washed in 1 ml of HBSS, preincubated in 1.5 ml of HBSS for 2 hour prior to a 2 hour incubation in the presence of secretagogues as indicated in the figures. The insulin levels were determined by radioimmunoassay with the Coat-A-Count kit (ICN Pharmaceuticals, Costa Mesa, Calif.) and lactate output was determined with a Lactate Reagent kit (Sigma, St. Louis, Mo.) according to protocols outlined by the manufacturer.

rat INS-1 cells = conditions: glucose-responsive clones; correlated with pyruvate cycling; cited from earlier work
β-cell = conditions: non-metabolizable analogs of glucose; cited from earlier work

OCC(O)CO [glycerol]
pyruvate cycling [1]: higher
stimulation of insulin secretion [2]: to the same extent
lactate output [3]: higher

CC(O)C(=O)O (stereo not shown) [lactate]
stimulation of insulin secretion as secretagogue (832/13 cells; 832/13 cells overexpressing LDHA): as effective as the other two fuels; also recorded: as effective as glucose or pyruvate
stimulation of insulin secretion as secretagogue (832/13 cells; 832/13 cells without LDH overexpression): poor secretagogue; also recorded: only a weak stimulator of IS
stimulation of insulin secretion as secretagogue (832/13 cells; 832/13 cells without LDH overexpression, listed as Lactate): poor secretagogue

O=C(O)Cc1ccccc1 [phenylacetic acid]
effect on glucose-stimulated IS (rat INS-1 cells): impaired

CO[C@@H]([C@H](O)[C@H](O)CO)[C@@H](O)C=O [3-O-methyl glucose]
stimulation of insulin release (β-cell): fail to stimulate insulin release

O=C(O)CC(O)C(=O)O (stereo not shown) [malate]
effect on glucose-stimulated IS (rat INS-1 cells): potentiated

O=CC[C@@H](O)[C@H](O)[C@H](O)CO [2-deoxy glucose]
stimulation of insulin release (β-cell): fail to stimulate insulin release
